Data set [1] concerns DNA double strand breaks in the heart. Briefly: Detection of DNA double strand breaks (γ-H2AX staining) in heart sections. Type of data set: in vivo, mouse. To be noted: acute doxorubicin 25 mg/kg, 16 h. The procedure:
After mice were sacrificed, hearts were perfused with ice-cold PBS, quickly removed, embedded in OCT compound (Fisher Scientific), and snap-frozen in liquid nitrogen. The heart was sectioned to 5 μm-thick slices using a cryostat. Heart sections were stored at −80° C. until immunofluorescence staining was performed. Heart sections were rinsed with PBS at room temperature, fixed in BD Cytofix/Cytoperm solution (BD Biosciences) for 15 m, washed in PBS, and permeabilized in BD Perm/Wash solution for 30 m. Heart sections were first blocked with BSA (2 mg/ml) for 30 m, then incubated with an mouse monoclonal anti-γ-H2AX antibody conjugated with Alexa Fluor 555 (Clone N1-431, BD Biosciences) for 1 h. Nuclei were stained with DAPI (Sigma, 1 μg/ml PBS), and the slides were sealed for examination with an Olympus epifluorescence microscope (Model BX51). To quantify DSBs, the numbers of γ-H2AX-positive nuclei and the total nuclei were counted in 5 microscopic fields (400×) per section. For each mouse, five heart sections were counted to determine the percentage of γ-H2AX-positive nuclei.
To further confirm the cardio-protective effect of Dex, DNA double strand breaks were assessed in heart tissues. Dexrazoxane (100 mg/kg) was injected (ip) 8 hrs prior to doxorubicin (25 mg/kg) treatment. Hearts were harvested 16 hr after doxorubicin treatment. The percentage of γH2AX-positive nuclei was counted in 5 fields (400×) in each heart section. Five sections were counted in each heart to determine the average percentage of γH2AX-positive nuclei.

The test system of data set [2] is cardiomyocytes. Nature of the data set: Oxygen consumption rate (Seahorse XF96) of isolated cardiomyocytes. Type of data set: in vivo, mouse. To be noted: wild type cardiomyocytes, 72 hrs after doxorubicin 25 mg/kg; not in Top2b deleted. The procedure:
FIGS. 5a-c: a. Determination of oxygen consumption rate (OCR). Cardiomyocytes were isolated from hearts of Top2b^+/+ and Top2b^Δ/Δ mice 72 hrs after treatment with doxorubicin (25 mg/kg; right bars) or drug vehicle (left bars). The cardiomyocytes were seeded in 96-well plates for oxygen consumption measurement using a Seahorse XF96 instrument. OCR was measured continuously for 90 min in […] from each mouse. The basic OCR was hardly changed during the 90 min measurement, therefore, the OCR at 90 min was compared among the groups. After measurement, the number of cells was counted. Results were normalized as pmoles of oxygen consumed per min per 1,000 cells. Bars represent means±SEM. Asterisk indicates statistically significant difference (p<0.05). b. ROS production in the hearts. Representative images of heart sections stained with Dihydroethidium (DHE), which, after being oxidized, intercalates into DNA and stains the nuclei red. Hearts were harvested 16 hrs after doxorubicin treatment (25 mg/kg) and snap-frozen as described. Heart sections were stained with DHE immediately. […] Quantification of ROS production in FIG. 5b. The numbers of DHE-positive and total nuclei were counted as described and the percentage of DHE-positive nuclei was determined. Quantitative data (mean±SEM) were shown as a bar graph below the images. […]

`COc1cccc2c1C(=O)c1c(O)c3c(c(O)c1C2=O)C[C@@](O)(C(=O)CO)C[C@@H]3O[C@H]1C[C@H](N)[C@H](O)[C@H](C)O1` [doxorubicin]: the “DSBs in the nuclei (γ-H2AX-positive nuclei)” value in data set [1] (Top2b+/+ mice) is “caused DSBs”. In addition, the “Reduction of doxorubicin-caused DSBs in Top2bΔ/Δ mice versus Top2b+/+ mice” value in data set [1] stood at 60%. Besides, in data set [2], the “Oxygen consumption rate (OCR)” value is reported as “significantly reduced”.
